Key:
[1] = molecular target: AP2-associated protein kinase 1 (Homo sapiens) (UniProt Q2M2I8)
[2] = molecular target: ALK tyrosine kinase receptor (Homo sapiens) (UniProt Q9UM73)
[3] = molecular target: Calcium/calmodulin-dependent protein kinase type 1 (Homo sapiens) (UniProt Q14012)
[4] = molecular target: Calcium/calmodulin-dependent protein kinase type II subunit beta (Homo sapiens) (UniProt Q13554)
[5] = molecular target: Cyclin-dependent kinase 11A (Homo sapiens) (UniProt Q9UQ88)
[6] = molecular target: Cyclin-dependent kinase 5 (Homo sapiens) (UniProt Q00535)
[7] = molecular target: Cyclin-dependent kinase-like 1 (Homo sapiens) (UniProt Q00532)
Cyclin-dependent kinase-like 1 (Homo sapiens), sequence (Q00532 whole entry): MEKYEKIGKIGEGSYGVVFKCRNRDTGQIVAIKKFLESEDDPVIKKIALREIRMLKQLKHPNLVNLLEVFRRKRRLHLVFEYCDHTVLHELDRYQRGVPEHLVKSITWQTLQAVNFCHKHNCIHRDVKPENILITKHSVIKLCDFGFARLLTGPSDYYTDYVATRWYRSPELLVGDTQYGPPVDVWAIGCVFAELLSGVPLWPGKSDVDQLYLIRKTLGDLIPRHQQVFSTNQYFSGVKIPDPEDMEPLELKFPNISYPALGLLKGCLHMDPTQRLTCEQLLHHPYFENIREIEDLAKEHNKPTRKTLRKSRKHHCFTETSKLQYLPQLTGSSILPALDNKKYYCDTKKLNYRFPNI

[8] = molecular target: Citron Rho-interacting kinase (Homo sapiens) (UniProt O14578)
[9] = molecular target: Serine/threonine-protein kinase 17B (Homo sapiens) (UniProt O94768)
[10] = system: Epidermal growth factor receptor (Homo sapiens), P00533 [UNDEFINED MUTATION]
[11] = molecular target: Ephrin type-A receptor 2 (Homo sapiens) (UniProt P29317)
[12] = molecular target: Ephrin type-A receptor 8 (Homo sapiens) (UniProt P29322)
[13] = molecular target: Mitogen-activated protein kinase 3 (Homo sapiens) (UniProt P27361)
[14] = molecular target: Cyclin-G-associated kinase (Homo sapiens) (UniProt O14976)
[15] = system: Mast/stem cell growth factor receptor Kit (Homo sapiens), P10721 [D816V]
[16] = molecular target: Tyrosine-protein kinase Lck (Homo sapiens) (UniProt P06239)
Tyrosine-protein kinase Lck (Homo sapiens), sequence (P06239 2-509 limits assumed): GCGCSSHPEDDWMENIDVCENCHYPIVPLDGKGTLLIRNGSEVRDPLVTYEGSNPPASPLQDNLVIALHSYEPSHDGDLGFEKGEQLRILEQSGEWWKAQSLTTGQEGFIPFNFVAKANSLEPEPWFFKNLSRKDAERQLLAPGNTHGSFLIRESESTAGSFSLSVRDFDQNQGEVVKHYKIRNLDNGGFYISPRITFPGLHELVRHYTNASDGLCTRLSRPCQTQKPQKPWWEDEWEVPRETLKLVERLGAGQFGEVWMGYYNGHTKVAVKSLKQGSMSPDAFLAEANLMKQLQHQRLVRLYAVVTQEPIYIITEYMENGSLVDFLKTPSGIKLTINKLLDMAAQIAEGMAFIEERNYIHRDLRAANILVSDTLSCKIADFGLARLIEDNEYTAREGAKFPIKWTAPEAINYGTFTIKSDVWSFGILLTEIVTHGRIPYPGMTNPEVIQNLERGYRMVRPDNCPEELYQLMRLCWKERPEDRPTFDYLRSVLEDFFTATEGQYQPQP

[17] = molecular target: Tyrosine-protein kinase Lyn (Homo sapiens) (UniProt P07948)
[18] = molecular target: Mitogen-activated protein kinase kinase kinase 4 (Homo sapiens) (UniProt Q9Y6R4)
[19] = molecular target: Misshapen-like kinase 1 (Homo sapiens) (UniProt Q8N4C8)
[20] = molecular target: Serine/threonine-protein kinase MRCK alpha (Homo sapiens) (UniProt Q5VT25)
[21] = molecular target: Mitogen-activated protein kinase 12 (Homo sapiens) (UniProt P53778)
[22] = molecular target: Serine/threonine-protein kinase PAK 1 (Homo sapiens) (UniProt Q13153)
Serine/threonine-protein kinase PAK 1 (Homo sapiens), sequence (Q13153 whole entry): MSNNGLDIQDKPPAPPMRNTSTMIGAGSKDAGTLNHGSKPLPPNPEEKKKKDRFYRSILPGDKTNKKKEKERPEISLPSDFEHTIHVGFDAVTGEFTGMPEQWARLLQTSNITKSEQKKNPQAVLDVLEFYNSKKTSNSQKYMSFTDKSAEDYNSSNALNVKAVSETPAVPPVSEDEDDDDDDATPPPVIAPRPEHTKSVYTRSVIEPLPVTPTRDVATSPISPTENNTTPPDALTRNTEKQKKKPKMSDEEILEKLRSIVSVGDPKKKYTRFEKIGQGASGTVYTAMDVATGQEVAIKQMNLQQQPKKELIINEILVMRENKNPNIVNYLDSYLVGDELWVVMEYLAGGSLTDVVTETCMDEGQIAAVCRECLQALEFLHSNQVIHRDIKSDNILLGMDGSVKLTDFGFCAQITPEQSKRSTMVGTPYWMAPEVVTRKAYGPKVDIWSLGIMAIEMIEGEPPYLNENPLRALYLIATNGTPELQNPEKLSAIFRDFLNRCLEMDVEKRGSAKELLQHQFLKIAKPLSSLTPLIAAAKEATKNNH

[23] = molecular target: Serine/threonine-protein kinase PAK 3 (Homo sapiens) (UniProt O75914)
[24] = molecular target: Phosphatidylinositol 3-kinase C2 domain-containing subunit gamma (Homo sapiens) (UniProt O75747)
Phosphatidylinositol 3-kinase C2 domain-containing subunit gamma (Homo sapiens), sequence (O75747 whole entry, the tested form may be a part, canonical isoform): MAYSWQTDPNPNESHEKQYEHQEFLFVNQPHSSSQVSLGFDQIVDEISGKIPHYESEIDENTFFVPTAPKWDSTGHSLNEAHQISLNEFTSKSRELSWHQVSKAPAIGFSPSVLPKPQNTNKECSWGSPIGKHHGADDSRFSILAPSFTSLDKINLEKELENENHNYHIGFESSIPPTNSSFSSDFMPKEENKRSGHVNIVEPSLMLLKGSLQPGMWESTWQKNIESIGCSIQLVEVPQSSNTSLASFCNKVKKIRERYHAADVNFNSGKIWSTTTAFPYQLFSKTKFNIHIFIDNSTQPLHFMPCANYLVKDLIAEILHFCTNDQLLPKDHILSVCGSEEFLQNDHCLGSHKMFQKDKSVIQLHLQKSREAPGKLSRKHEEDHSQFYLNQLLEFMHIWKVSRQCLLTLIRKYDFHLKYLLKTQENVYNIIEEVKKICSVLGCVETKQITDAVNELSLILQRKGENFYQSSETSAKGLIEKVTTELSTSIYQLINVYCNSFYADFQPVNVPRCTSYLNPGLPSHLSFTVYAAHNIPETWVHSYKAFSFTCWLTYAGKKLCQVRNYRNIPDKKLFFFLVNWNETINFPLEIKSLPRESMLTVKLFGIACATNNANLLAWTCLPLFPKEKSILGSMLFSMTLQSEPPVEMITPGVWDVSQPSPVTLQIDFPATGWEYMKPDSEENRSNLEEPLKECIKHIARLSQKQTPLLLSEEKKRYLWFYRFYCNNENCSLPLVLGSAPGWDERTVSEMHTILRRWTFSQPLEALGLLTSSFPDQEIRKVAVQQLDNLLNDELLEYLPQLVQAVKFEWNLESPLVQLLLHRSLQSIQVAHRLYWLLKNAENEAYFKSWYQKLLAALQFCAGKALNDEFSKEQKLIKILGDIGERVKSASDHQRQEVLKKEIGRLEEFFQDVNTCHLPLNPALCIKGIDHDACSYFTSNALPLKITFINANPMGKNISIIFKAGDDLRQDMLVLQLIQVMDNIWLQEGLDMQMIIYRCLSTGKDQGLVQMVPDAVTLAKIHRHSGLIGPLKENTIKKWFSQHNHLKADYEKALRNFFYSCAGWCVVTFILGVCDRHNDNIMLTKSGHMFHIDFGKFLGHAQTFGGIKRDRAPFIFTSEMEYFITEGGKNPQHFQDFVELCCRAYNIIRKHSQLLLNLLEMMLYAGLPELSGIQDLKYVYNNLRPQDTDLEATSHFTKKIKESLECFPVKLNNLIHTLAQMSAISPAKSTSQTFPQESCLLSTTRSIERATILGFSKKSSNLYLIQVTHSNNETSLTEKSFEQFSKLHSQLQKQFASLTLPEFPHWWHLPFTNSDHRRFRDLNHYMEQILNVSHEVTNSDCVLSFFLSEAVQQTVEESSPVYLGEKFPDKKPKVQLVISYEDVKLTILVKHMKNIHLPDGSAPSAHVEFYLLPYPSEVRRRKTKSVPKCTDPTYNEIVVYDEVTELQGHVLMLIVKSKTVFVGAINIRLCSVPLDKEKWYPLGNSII

[25] = molecular target: Phosphatidylinositol 4,5-bisphosphate 3-kinase catalytic subunit alpha isoform (Homo sapiens) (UniProt P42336)
Phosphatidylinositol 4,5-bisphosphate 3-kinase catalytic subunit alpha isoform (Homo sapiens), sequence (P42336 whole entry, canonical isoform): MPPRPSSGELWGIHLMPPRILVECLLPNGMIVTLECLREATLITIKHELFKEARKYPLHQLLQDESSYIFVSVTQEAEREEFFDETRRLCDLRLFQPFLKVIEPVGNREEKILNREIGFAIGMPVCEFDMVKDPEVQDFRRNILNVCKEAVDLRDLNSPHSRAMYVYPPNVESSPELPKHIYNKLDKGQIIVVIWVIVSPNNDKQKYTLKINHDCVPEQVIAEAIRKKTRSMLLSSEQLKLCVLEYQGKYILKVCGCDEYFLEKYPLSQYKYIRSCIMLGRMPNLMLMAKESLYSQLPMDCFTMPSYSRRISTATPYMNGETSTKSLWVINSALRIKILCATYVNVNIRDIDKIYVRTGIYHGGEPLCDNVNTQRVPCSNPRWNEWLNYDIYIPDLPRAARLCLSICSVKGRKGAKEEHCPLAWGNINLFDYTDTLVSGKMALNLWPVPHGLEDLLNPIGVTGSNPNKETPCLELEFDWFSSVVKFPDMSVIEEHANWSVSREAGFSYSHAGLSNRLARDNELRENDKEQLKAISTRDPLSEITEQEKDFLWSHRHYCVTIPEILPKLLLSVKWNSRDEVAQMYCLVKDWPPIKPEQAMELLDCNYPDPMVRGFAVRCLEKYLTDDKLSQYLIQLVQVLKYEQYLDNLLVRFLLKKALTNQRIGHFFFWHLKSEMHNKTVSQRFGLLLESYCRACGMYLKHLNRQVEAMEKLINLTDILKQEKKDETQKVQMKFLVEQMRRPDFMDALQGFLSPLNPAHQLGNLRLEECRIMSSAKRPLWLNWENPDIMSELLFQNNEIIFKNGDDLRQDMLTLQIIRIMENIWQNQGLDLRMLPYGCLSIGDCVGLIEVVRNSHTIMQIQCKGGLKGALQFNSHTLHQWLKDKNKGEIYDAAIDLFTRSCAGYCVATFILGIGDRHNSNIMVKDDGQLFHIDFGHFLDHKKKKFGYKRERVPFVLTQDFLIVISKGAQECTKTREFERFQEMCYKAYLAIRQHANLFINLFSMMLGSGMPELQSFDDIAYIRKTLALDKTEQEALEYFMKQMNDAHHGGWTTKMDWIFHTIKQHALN

[26] = system: Phosphatidylinositol 4,5-bisphosphate 3-kinase catalytic subunit alpha isoform (Homo sapiens), P42336 [Q546K]
Phosphatidylinositol 4,5-bisphosphate 3-kinase catalytic subunit alpha isoform (Homo sapiens), P42336 [Q546K], sequence (P42336 whole entry Q546K, canonical isoform): as the sequence (P42336 whole entry, canonical isoform) above, with Q546K counted along it

[27] = molecular target: Phosphatidylinositol 4,5-bisphosphate 3-kinase catalytic subunit delta isoform (Homo sapiens) (UniProt O00329)
[28] = molecular target: Interferon-induced, double-stranded RNA-activated protein kinase (Homo sapiens) (UniProt P19525)
[29] = molecular target: Receptor-interacting serine/threonine-protein kinase 1 (Homo sapiens) (UniProt Q13546)
[30] = molecular target: Ribosomal protein S6 kinase alpha-5 (Homo sapiens) (UniProt O75582)
[31] = molecular target: Serine/threonine-protein kinase SIK1 (Homo sapiens) (UniProt P57059)
[32] = molecular target: Serine/threonine-protein kinase 16 (Homo sapiens) (UniProt O75716)
[33] = molecular target: Mitogen-activated protein kinase kinase kinase 7 (Homo sapiens) (UniProt O43318)
[34] = molecular target: TGF-beta receptor type-2 (Homo sapiens) (UniProt P37173)
[35] = molecular target: Serine/threonine-protein kinase TNNI3K (Homo sapiens) (UniProt Q59H18)
[36] = molecular target: Phosphatidylinositol 3-kinase catalytic subunit type 3 (Homo sapiens) (UniProt Q8NEB9)
[37] = molecular target: Serine/threonine-protein kinase WNK2 (Homo sapiens) (UniProt Q9Y3S1)
[38] = molecular target: 5-hydroxytryptamine receptor 1A (Homo sapiens) (UniProt P08908); details: Compound concentration 10.0 uM
[39] = molecular target: 5-hydroxytryptamine receptor 2B (Homo sapiens, UniProt P41595); details: Compound concentration 10.0 uM
[40] = molecular target: 5-hydroxytryptamine receptor 5A (Homo sapiens) (UniProt P47898); details: Compound concentration 10.0 uM
[41] = molecular target: D(1A) dopamine receptor (Homo sapiens) (UniProt P21728); details: Compound concentration 10.0 uM
[42] = molecular target: Delta-type opioid receptor (Homo sapiens, UniProt P41143); details: Compound concentration 10.0 uM
[43] = molecular target: GABA-A receptor; anion channel (Rattus norvegicus) (UniProt O09028+P15431+P18506+P18508+P19969+P20236+P23574+P23576+P28471+P28473+P30191+P62813+P63079+P63138+Q91ZM7+Q9ES14); details: Compound concentration 10.0 uM
[44] = Compound concentration 1000.0 nM
[45] = Compound concentration 100.0 nM

Cc1cc(NC(=O)c2cccc(S(F)(F)(F)(F)F)c2)cc(-n2ccn3nc(-c4cccnc4)cc23)c1 [BAY-309]
residual activity [1, 44]: 100%
residual activity [2, 44]: 68.1%
residual activity [3, 44]: 77.9%
residual activity [4, 44]: 100%
residual activity [5, 44]: 95.4%
residual activity [6, 44]: 100%
residual activity [7, 44]: 84.5%
residual activity [8, 44]: 60.7%
residual activity [9, 44]: 100%
residual activity [10, 44]: 100%
residual activity [11, 44]: 100%
residual activity [12, 44]: 100%
residual activity [13, 44]: 86.8%
residual activity [14, 44]: 100%
residual activity [15, 44]: 100%
residual activity [16, 44]: 96.6%
residual activity [17, 44]: 100%
residual activity [18, 44]: 53.6%
residual activity [19, 44]: 82%
residual activity [20, 44]: 88.5%
residual activity [21, 44]: 41.7%
residual activity [22, 44]: 90.9%
residual activity [23, 44]: 100%
residual activity [24, 44]: 100%
residual activity [25, 44]: 100%
residual activity [26, 44]: 100%
residual activity [27, 44]: 100%
residual activity [28, 44]: 72.7%
residual activity [29, 44]: 80.7%
residual activity [30, 44]: 100%
residual activity [31, 44]: 100%
residual activity [32, 44]: 53.9%
residual activity [33, 44]: 100%
residual activity [34, 44]: 94.5%
residual activity [35, 44]: 100%
residual activity [36, 44]: 76.6%
residual activity [37, 44]: 100%
inhibition [38]: 39.9%
inhibition [39]: 60.4%
inhibition [40]: -4.71%
inhibition [41]: 20.6%
inhibition [42]: 58.5%
inhibition [43]: -4.43%

Cc1cc(C)c(-n2ccn3nc(-c4cccnc4)cc23)cc1NC(=O)c1cc(C#N)cc(S(F)(F)(F)(F)F)c1 [BAY-826]
residual activity [1, 45]: 95.9%
residual activity [2, 45]: 94.4%
residual activity [3, 45]: 60.4%
residual activity [4, 45]: 87.5%
residual activity [5, 45]: 89.9%
residual activity [6, 45]: 95.6%
residual activity [7, 45]: 77.4%
residual activity [8, 45]: 69.9%
residual activity [9, 45]: 91.4%
residual activity [10, 45]: 88.5%
residual activity [11, 45]: 79.6%
residual activity [12, 45]: 83.5%
residual activity [13, 45]: 95.2%
residual activity [14, 45]: 83.3%
residual activity [15, 45]: 98.8%
residual activity [16, 45]: 41.6%
residual activity [17, 45]: 46%
residual activity [18, 45]: 98.1%
residual activity [19, 45]: 88.9%
residual activity [20, 45]: 100%
residual activity [21, 45]: 61.2%
residual activity [22, 45]: 82.2%
residual activity [23, 45]: 26.1%
residual activity [24, 45]: 60.7%
residual activity [25, 45]: 87.9%
residual activity [26, 45]: 100%
residual activity [27, 45]: 76.9%
residual activity [28, 45]: 96.4%
residual activity [29, 45]: 91.5%
residual activity [30, 45]: 100%
residual activity [31, 45]: 86.3%
residual activity [32, 45]: 64.3%
residual activity [33, 45]: 66.2%
residual activity [34, 45]: 78.6%
residual activity [35, 45]: 85.8%
residual activity [36, 45]: 84.9%
residual activity [37, 45]: 100%
inhibition [38]: -6.68%
inhibition [39]: -7%
inhibition [40]: 9.57%
inhibition [41]: 4.82%
inhibition [42]: 18.7%
inhibition [43]: -6.93%
